Literature values in PMC7830118, “Synthesis and Biological Evaluation of ^99mTc(I) Tricarbonyl Complexes Dual-Targeted at Tumoral Mitochondria” (Molecules, 2021).

Test system: mitochondria fraction isolated from rat myocardium
Description: The ^99mTc-BBN complex accumulates to a low extent (0.19 to 0.24%) in mitochondria when compared with the TPP-containing complexes. […] The highest mitochondrial uptake (0.84 ± 0.06%) was found for the dual-targeted complex, ^99mTc-TPP-BBN, after 2 h of incubation. The measured uptakes are relative values that were obtained in the same manner and, therefore, reflect the mitotropic properties of each complex. However, it is worthwhile to mention that in these ...

SMILES: [99Tc].[C-]#[N+]CC(C)(C)OC.[C-]#[N+]CC(C)(C)OC.[C-]#[N+]CC(C)(C)OC.[C-]#[N+]CC(C)(C)OC.[C-]#[N+]CC(C)(C)OC.[C-]#[N+]CC(C)(C)OC [^99mTc-MIBI]
- Mitochondrial uptake after correction for mitochondria in other cellular fractions (correction with CCCP and malate dehydrogenase activity): 68%
- Measured mitochondrial uptake (accumulation in the mitochondria fraction), uncorrected (mitochondria fraction isolated from rat myocardium): 2.38%
